Measurements taken from paper PMC4000412, “Novel LHRH-receptor-targeted cytolytic peptide, EP-100: first-in-human phase I study in patients with advanced LHRH-receptor-expressing solid tumors” (Cancer Chemotherapy and Pharmacology, 2014).
“Also recorded” adds a separate entry of the source. Peptide text beside a SMILES is read from it.

Tests used:
[1] = Phase I dose-escalation safety: MTD, DLT, adverse events (NCI CTCAE 3.0); assay type: in vivo, human
Procedure: An open-label dose-escalation study was conducted at three centers after review and approval by each centers’ Institutional Review Board. Patients’ written informed consent was provided prior to study enrollment. The primary objectives of the study were to determine the maximum-tolerated dose (MTD) of EP-100 by intravenous (IV) infusion and to describe any dose limiting toxicities (DLT), which would inform the recommended phase 2 dose (RP2D) of EP-100 for future phase 2 protocols. Secondary objectives included: (a) to profile the PK and PD of EP-100, (b) to assess any drug immunogenicity by antidrug antibodies (ADA) which may react with endogenous LHRH, (c) to monitor biomarkers of pharmacologic activity of EP-100 and (d) to assess antitumor activity of EP-100 by radiographic assessments.
Cohorts of three patients were enrolled in a 3 + 3 dose-escalation design. […] A conservative first-in-human starting dose of 0.6 mg/m^2 was chosen, based on the repeat-dose toxicity studies in dogs (which appeared to be the most sensitive species). The initial dose schedule of one 30 min infusion weekly was predicted from animal PK profiles. Dosing frequency and infusion time were increased in subsequent cohorts by two protocol amendments. To increase the cumulative dose-exposure to EP-100, infusions were increased to twice weekly after conducting safety assessments in the first seven cohorts (n = 21 patients, at dose levels 0.6–7.8 mg/m^2). Twice weekly infusions effectively doubled the EP-100 delivered in all patients after cohort 7. The infusion time for the twice weekly doses also was increased from 30 to 60 min beginning with one patient in cohort 8 (dose level 11.7 mg/m^2), which decreased the intensity of infusion reactions (described below).
The absence of grade 2 drug-related toxicities in lower dose cohorts allowed 100 % dose acceleration. In the event of grade 2 or higher non-DLT in one or more patients, dose was escalated by 50 %. Dose escalation was limited to 50 % for any grade 1 or 2 drug-related dermatologic reactions unlikely to be allergic reaction or histamine-release syndromes and to 25 % for any grade 3 or 4 drug-related infusion reaction. With occurrence of the first DLT, the cohort was expanded to three additional patients. If one or more of the three additional patients at that dose level experienced DLT (total of two or more patients with DLT), MTD was reached. MTD was defined as the dose level below which two out of three to six patients experienced a DLT during the first cycle or during 1 complete cycle (28 days).
All adverse events (AE) were graded and reported according to National Cancer Institute Common Terminology Criteria for Adverse Events version 3.0 (NCI CTCAE 3.0). DLT were recorded during Cycle 1 if patients had any of the following: grade 4 neutropenia lasting 5 or more days, grade 3/4 neutropenia with fever and/or infection, grade 4 thrombocytopenia or grade 3 thrombocytopenia with bleeding, grade 3 or 4 allergic reaction, grade 3 or 4 drug-related non-hematologic toxicity (not including grade 3 nausea/vomiting or diarrhea with sub-optimal prophylactic and curative treatment) or a dose delay of more than 2 weeks due to treatment-related AE or laboratory abnormalities. Any grade 3 AE not judged to be clinically significant (e.g., alopecia or drug-related fever) were not considered DLT.

[2] = test system: LHRH-receptor-positive human ovarian cancer cell line (OVCAR-3); set-up: method as in earlier work; conditions: mice implanted with OVCAR-3, three weekly doses; cited from earlier work
[3] = test system: pituitary gonadotropes (LHRH receptors); test: Pharmacodynamics: serum FSH, LH and other pituitary hormones in patients; assay type: in vivo, human
Procedure: FSH and LH levels as well as testosterone in men and estradiol levels in women were obtained on Days 1, 8, 15 and 22 within 24 h prior to dosing. Testosterone and estradiol levels were measured on Day 1 only after Cycle 1 and at off study assessment. Blood was collected for circulating tumor cells (CTC) prior to dosing on Day 1 of the first cycle. Patients with positive CTC at baseline also had blood collected for CTC analysis prior to dosing on Day 1 of each subsequent cycle. Additional studies included plasma cortisol, adrenocorticotropin (ACTH), thyroxine (T4) and thyroid-stimulating hormone (TSH) and blood for tumor specific biomarker analysis (at investigator’s discretion), all obtained prior to Day 1 dosing with each cycle and at off study assessment. Samples for antidrug antibodies (ADA) were collected on Day 1 of Cycle 1 and then on Day 1 of every odd cycle.

[4] = selected toxicities, all cycles, N = 37

For `CC(C)C[C@H](NC(=O)CNC(=O)[C@H](Cc1ccc(O)cc1)NC(=O)[C@H](CO)NC(=O)[C@H](Cc1c[nH]c2ccccc12)NC(=O)[C@H](Cc1c[nH]cn1)NC(=O)[C@@H]1CCC(=O)N1)C(=O)N[C@@H](CCCNC(=N)N)C(=O)N1CCC[C@H]1C(=O)NCC(=O)N[C@@H](CCCCN)C(=O)N[C@@H](Cc1ccccc1)C(=O)N[C@@H](C)C(=O)N[C@@H](CCCCN)C(=O)N[C@@H](Cc1ccccc1)C(=O)N[C@@H](C)C(=O)N[C@@H](CCCCN)C(=O)N[C@@H](CCCCN)C(=O)N[C@@H](Cc1ccccc1)C(=O)N[C@@H](C)C(=O)N[C@@H](CCCCN)C(=O)N[C@@H](Cc1ccccc1)C(=O)N[C@@H](C)C(=O)N[C@@H](CCCCN)C(=O)N[C@@H](CCCCN)C(=O)N[C@@H](Cc1ccccc1)C(=O)N[C@@H](C)C(=O)N[C@@H](CCCCN)C(=O)O` [EP-100] (HELM PEPTIDE1{[Glp].H.W.S.Y.G.L.R.P.G.K.F.A.K.F.A.K.K.F.A.K.F.A.K.K.F.A.K}$$$$V2.0; C-terminus assumed), the “IRDRs in the four lowest dose cohorts” value ([1]; 0.6–1.7 mg/m^2 at dose concentrations of 0.01–0.03 mg/mL) was “No IRDRs”, the “toxicities / AE of grade 3 or higher” value ([1]; all 37 patients, all dose levels) was “No toxicities ≥grade 3; also recorded: no grade 3 or 4 AE” and the “IRDRs (infusion-related dermatologic reactions) reported” value ([1]; all dose levels) was 10 of 37. For the same compound, the “SAE Disease progression, No. of patients (%)” value ([1]; dosing 1.35 mg/m^2 qw) was 1 (2.7) No. of patients (%), the “SAE Disease progression, Outcome” value ([1]; dosing 1.35 mg/m^2 qw) was “Death” and the “SAE Disease progression, Relationship to EP-100” value ([1]; dosing 1.35 mg/m^2 qw) was “Unrelated”. For the same compound, the “SAE Gastrointestinal hemorrhage, No. of patients (%)” value ([1]; dosing 1.35 mg/m^2 qw) was 1 (2.7) No. of patients (%), the “SAE Gastrointestinal hemorrhage, Outcome” value ([1]; dosing 1.35 mg/m^2 qw) was “Resolved” and the “SAE Gastrointestinal hemorrhage, Relationship to EP-100” value ([1]; dosing 1.35 mg/m^2 qw) was “Unlikely related”. For the same compound, the “SAE Peripheral edema, No. of patients (%)” value ([1]; dosing 1.35 mg/m^2 qw) was 1 (2.7) No. of patients (%), the “SAE Peripheral edema, Outcome” value ([1]; dosing 1.35 mg/m^2 qw) was “Resolved with sequelae” and the “SAE Peripheral edema, Relationship to EP-100” value ([1]; dosing 1.35 mg/m^2 qw) was “Unrelated”. For the same compound, the “SAE Pain, No. of patients (%)” value ([1]; dosing 1.7 mg/m^2 qw) was 1 (2.7) No. of patients (%), the “SAE Pain, Outcome” value ([1]; dosing 1.7 mg/m^2 qw) was “Ongoing” and the “SAE Pain, Relationship to EP-100” value ([1]; dosing 1.7 mg/m^2 qw) was “Unrelated”. The “SAE Chills, No. of patients (%)” value ([1]; dosing 11.7 mg/m^2 biw) was 1 (2.7) No. of patients (%), the “SAE Chills, Outcome” value ([1]; dosing 11.7 mg/m^2 biw) was “Resolved” and the “SAE Chills, Relationship to EP-100” value ([1]; dosing 11.7 mg/m^2 biw) was “Unrelated”. For the same compound, the “SAE Hydronephrosis, No. of patients (%)” value ([1]; dosing 11.7 mg/m^2 biw) was 1 (2.7) No. of patients (%), the “SAE Hydronephrosis, Outcome” value ([1]; dosing 11.7 mg/m^2 biw) was “Resolved” and the “SAE Hydronephrosis, Relationship to EP-100” value ([1]; dosing 11.7 mg/m^2 biw) was “Unrelated”. For the same compound, the “SAE Febrile neutropenia, No. of patients (%)” value ([1]; dosing 17.5 mg/m^2 biw) was 1 (2.7) No. of patients (%), the “SAE Febrile neutropenia, Outcome” value ([1]; dosing 17.5 mg/m^2 biw) was “Resolved” and the “SAE Febrile neutropenia, Relationship to EP-100” value ([1]; dosing 17.5 mg/m^2 biw) was “Unrelated”. For the same compound, the “SAE Ascites, No. of patients (%)” value ([1]; dosing 26 mg/m^2 biw) was 1 (2.7) No. of patients (%), the “SAE Ascites, Outcome” value ([1]; dosing 26 mg/m^2 biw) was “Resolved with sequelae” and the “SAE Ascites, Relationship to EP-100” value ([1]; dosing 26 mg/m^2 biw) was “Unlikely related”. The “SAE Fatigue, No. of patients (%)” value ([1]; dosing 26 mg/m^2 biw) was 1 (2.7) No. of patients (%), the “SAE Fatigue, Outcome” value ([1]; dosing 26 mg/m^2 biw) was “Resolved” and the “SAE Fatigue, Relationship to EP-100” value ([1]; dosing 26 mg/m^2 biw) was “Unrelated”. For the same compound, the “SAE Facial paresis, No. of patients (%)” value ([1]; dosing 40 mg/m^2 biw) was 1 (2.7) No. of patients (%), the “SAE Facial paresis, Outcome” value ([1]; dosing 40 mg/m^2 biw) was “Ongoing” and the “SAE Facial paresis, Relationship to EP-100” value ([1]; dosing 40 mg/m^2 biw) was “Unrelated”. The “SAE Gastrointestinal obstruction, No. of patients (%)” value ([1]; dosing 0.6, 0.9 mg/m^2 qw) was 2 (5.4) No. of patients (%), the “SAE Gastrointestinal obstruction, Outcome” value ([1]; dosing 0.6, 0.9 mg/m^2 qw) was “Resolved with sequelae” and the “SAE Gastrointestinal obstruction, Relationship to EP-100” value ([1]; dosing 0.6, 0.9 mg/m^2 qw) was “Unrelated”. The “SAE Pleural effusion, No. of patients (%)” value ([1]; dosing 11.7, 26 mg/m^2 biw) was 2 (5.4) No. of patients (%), the “SAE Pleural effusion, Outcome” value ([1]; dosing 11.7, 26 mg/m^2 biw) was “Resolved” and the “SAE Pleural effusion, Relationship to EP-100” value ([1]; dosing 11.7, 26 mg/m^2 biw) was “Unrelated”. For the same compound, the “maximum-tolerated dose (MTD)” value ([1]; highest dose evaluated 40 mg/m^2 twice weekly, IV infusion, 3 of 4 weeks per 28 day cycle) was “not reached”, the “onset of IRDRs after start of the drug infusion” value ([1]; in vivo) was ≤ 15 min and the “infusion site hypersensitivity, patients” value ([1]; n = 4 patients of 37) was 10.8%. For the same compound, the “pain, patients” value ([1]; one patient of 37) was 2.7%, the “AP (alkaline phosphatase), Grade 1/2” value [1, 4] was 1 (2.7) No. of patients (%) and the “AP (alkaline phosphatase), Grade 3/4” value [1, 4] was 0 No. of patients (%). For the same compound, the “AST/ALT, Grade 1/2” value [1, 4] was 1 (2.7) No. of patients (%), the “AST/ALT, Grade 3/4” value [1, 4] was 0 No. of patients (%) and the “Diarrhea, Grade 1/2” value [1, 4] was 1 (2.7) No. of patients (%). For the same compound, the “Diarrhea, Grade 3/4” value [1, 4] was 0 No. of patients (%), the “Fatigue, Grade 1/2” value [1, 4] was 4 (10.8) No. of patients (%) and the “Fatigue, Grade 3/4” value [1, 4] was 0 No. of patients (%). For the same compound, the “Gastroesophageal reflux, Grade 1/2” value [1, 4] was 1 (2.7) No. of patients (%), the “Gastroesophageal reflux, Grade 3/4” value [1, 4] was 0 No. of patients (%) and the “Hemoglobin, Grade 1/2” value [1, 4] was 0 No. of patients (%). For the same compound, the “Hemoglobin, Grade 3/4” value [1, 4] was 0 No. of patients (%), the “Infusion-related dermatologic reactions, Grade 1/2” value [1, 4] was 10 (27) No. of patients (%) and the “Infusion-related dermatologic reactions, Grade 3/4” value [1, 4] was 0 No. of patients (%). The “Neutrophils, Grade 1/2” value [1, 4] was 0 No. of patients (%), the “Neutrophils, Grade 3/4” value [1, 4] was 0 No. of patients (%) and the “Platelets, Grade 1/2” value [1, 4] was 0 No. of patients (%). The “Platelets, Grade 3/4” value [1, 4] was 0 No. of patients (%), the “Total bilirubin, Grade 1/2” value [1, 4] was 0 No. of patients (%) and the “Total bilirubin, Grade 3/4” value [1, 4] was 0 No. of patients (%). For the same compound, the “Vomiting, Grade 1/2” value [1, 4] was 1 (2.7) No. of patients (%), the “Vomiting, Grade 3/4” value [1, 4] was 0 No. of patients (%) and the “number of SAE recorded” value ([1]; treatment-emergent, 37 patients) was “Fourteen”. The “decreased appetite, patients” value ([1]; two patients of 37) was 5.4%, the “time to disappearance of all IRDR symptoms after cessation of the infusion” value ([1]; typically) was ≤ 30 min and the in vivo activity [2] was “decreased CA-125 levels and tumor regression”. The “reduction from baseline FSH” value ([3]; one breast cancer patient, dose level 7.8 mg/m^2, FSH 127–15 U/L) was 88%, the LH reduction ([3]; one breast cancer patient, dose level 7.8 mg/m^2, LH 24–1 U/L) was 96% and the “effect on other pituitary hormones (ACTH and TSH)” value ([3]; patients) was “not affected”. It also gave an FSH decrease ([3]; second breast cancer patient, 11.7 mg/m^2, FSH 21–4 U/L) of 81%, an FSH decrease ([3]; third breast cancer patient, 26 mg/m^2, FSH 27–4 U/L) of 85% and an LH decrease ([3]; third breast cancer patient, 26 mg/m^2, LH 27–1.3 U/L) of 95%. For the same compound, the “patients with sustained decreases in LH and FSH” value ([3]; three patients of 37, dose levels 11.7 and 26 mg/m^2, all breast cancer) was 8%.
